Data reported in PMC11434868, “Synthesis and Antiproliferative Effect of 3,4,5-Trimethoxylated Chalcones on Colorectal and Prostatic Cancer Cells” (Pharmaceuticals, 2024).

Key:
[1] = system: caspase-3 and PARP in HCT116 cells; experiment: Western blot of apoptosis-related proteins in HCT116; format: cell-based, human; conditions: HCT116, 48 h;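 further: compared with untreated control cells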
Description: For total protein extraction, collected samples of each condition were washed in PBS. Then, the total cell pool was centrifuged at 200 g for 5 min at 4 °C and homogenized in RIPA lysis buffer (50 mM HEPES, pH 7.5, 150 mM NaCl, 1% sodium deoxycholate, 1% NP-40, 0.1% SDS, […] of aprotinin) containing protease inhibitors according to the manufacturer’s instructions. After quantification of protein levels using the Bradford method, proteins ([…]) were separated on 12.5% SDS-PAGE gels and transferred to PVDF membranes (GE Healthcare Life Science—Fisher Scientific). Membranes were probed with respective antibodies against human caspase-3, cleaved caspase-3, and PARP according to the manufacturer’s instructions. After incubation with appropriate secondary antibodies, blots were developed using the “ImmobilonWestern” substrate, following the manufacturer’s protocol, and G:BOX system (Syngene, Cambridge, UK). Membranes were then reblotted with human anti-β-actin used as a loading control.

[2] = system: human PCa (DU145 and PC3) cell lines; experiment: MTT assay, summary statements for PCa cells; format: cell-based; conditions: Homo sapiens, DU-145, DU145 and PC3, text summary; read-out: IC50 towards PCa cells
Description: Human CRC (HCT116 and HT-29) and PCa (DU145 and PC3) cell lines were purchased from the American Type Culture Collection (ATCC—LGC Standards, Molsheim, France). All cells were grown in RPMI 1640 medium supplemented with 10% FBS, 1% L-glutamine, 100 U/mL penicillin, and 100 μg/mL streptomycin. Cultures were maintained in a humidified atmosphere containing 5% CO2 at 37 °C. Cells were seeded in 75 cm^2 culture flasks at 1.2 × 10^4 cells/cm^2 for HCT116, DU145, and PC3 cells, and 2.0 × 10^4 for HT-29 cells. Cells were grown for 24 h in culture medium prior to exposure or not to obtain the synthesized compounds. Stock solutions (10^−2 M in DMSO) of each compound were diluted in culture medium to obtain appropriate final concentrations.
• (a) MTT assay: The antiproliferative effect of all compounds was determined using MTT assay (a metabolic activity test). Briefly, cells were seeded in 96-well culture plates at 4 × 10^3 cells/well for HCT116, PC3, and DU145 cells and 6 × 10^3 cells/well for HT-29 cells (100 µL/well), and grown for 24 h in culture medium prior to exposure or not to obtain compounds 1–15 with concentrations ranging from 5 nM to 50 μM. After 24 and 48 h of treatment, MTT (5 mg/mL in PBS) was added and incubated for another 3 h. MTT was then removed from the wells before adding 100 μL/well of DMSO. The optical density was detected with a microplate reader (Multiskan FC, Thermoscientific, Bordeaux, France) at 550 nm and cell viability was expressed as a percentage of each treatment condition compared to control cells. IC50 values were calculated for all compounds from the dose–response curve. Data are expressed as the arithmetic means ± standard error of the mean (SEM) of separate experiments. All experiments were performed at least in triplicate. • (b) Trypan blue dye exclusion method: Cells were grown for 24 h then treated with compounds 10 and 13 at indicated concentrations. After 48 h of treatment, cells were trypsinized and resuspended in complete medium. Each sample was mixed with Trypan blue solution (0.14% in HBSS, Invitrogen-GIBCO, ThermoFisher, Illkirch, France). Colored (non-viable) and dye-excluding (viable) cells were counted with the LUNA-II automated cell Counter (Logos Biosystems; MC2, Aubière, France). The control was normalized to 100% including viable and dead cells. The results indicated on the histograms were expressed as the percentage of cells compared to the control. IC50 values were determined from the percentages of viable cells compared to the control.

Compound | PARP cleavage (89 kDa fragment) [1] | cleaved caspase-3 [1] | native PARP expression [1] | pro-caspase-3 expression [1] | IC50 [2]
COc1cc(C(=O)/C=C/c2c[nH]c3ccccc23)cc(OC)c1OC [chalcone 10, (E)-3-(1H-indol-3-yl)-1-(3,4,5-trimethoxyphenyl)prop-2-en-1-one] | induced PARP cleavage | clearly observed | strong decreased expression | decreased | 17 to 31 nM
COc1cc(C(=O)/C=C/c2coc3ccc(C)cc3c2=O)cc(OC)c1OC [chalcone 13, (E)-6-methyl-3-(3-oxo-3-(3,4,5-trimethoxyphenyl)prop-1-en-1-yl)-4H-chromen-4-one] |  | clearly observed | strong decreased expression | decreased | 
